Test results published in US20220340875A1, “METHODS OF CULTURING AND/OR EXPANDING STEM CELLS AND/OR LINEAGE COMMITTED PROGENITOR CELLS USING AMIDO COMPOUNDS” (IDEAYA BIOSCIENCES, INC., priority 2018, published 2022).

What follows are compounds tested against T1, hAhR (Homo sapiens, UniProt P35869) (assay: AhR DRE-luciferase reporter transcriptional assay, antagonist mode (TCDD-induced)). Settings: HEPG2 DRE-Luc cells, 3 nM TCDD, 24 hour incubation, relative IC50.
T1 construct: Stably integrated DRE-luciferase cell lines were generated by transducing the both cell lines with Cignal XRE luciferase reporter (Qiagen) lentiviral particles; endogenous in cells
T1 sequence (P35869 11-848): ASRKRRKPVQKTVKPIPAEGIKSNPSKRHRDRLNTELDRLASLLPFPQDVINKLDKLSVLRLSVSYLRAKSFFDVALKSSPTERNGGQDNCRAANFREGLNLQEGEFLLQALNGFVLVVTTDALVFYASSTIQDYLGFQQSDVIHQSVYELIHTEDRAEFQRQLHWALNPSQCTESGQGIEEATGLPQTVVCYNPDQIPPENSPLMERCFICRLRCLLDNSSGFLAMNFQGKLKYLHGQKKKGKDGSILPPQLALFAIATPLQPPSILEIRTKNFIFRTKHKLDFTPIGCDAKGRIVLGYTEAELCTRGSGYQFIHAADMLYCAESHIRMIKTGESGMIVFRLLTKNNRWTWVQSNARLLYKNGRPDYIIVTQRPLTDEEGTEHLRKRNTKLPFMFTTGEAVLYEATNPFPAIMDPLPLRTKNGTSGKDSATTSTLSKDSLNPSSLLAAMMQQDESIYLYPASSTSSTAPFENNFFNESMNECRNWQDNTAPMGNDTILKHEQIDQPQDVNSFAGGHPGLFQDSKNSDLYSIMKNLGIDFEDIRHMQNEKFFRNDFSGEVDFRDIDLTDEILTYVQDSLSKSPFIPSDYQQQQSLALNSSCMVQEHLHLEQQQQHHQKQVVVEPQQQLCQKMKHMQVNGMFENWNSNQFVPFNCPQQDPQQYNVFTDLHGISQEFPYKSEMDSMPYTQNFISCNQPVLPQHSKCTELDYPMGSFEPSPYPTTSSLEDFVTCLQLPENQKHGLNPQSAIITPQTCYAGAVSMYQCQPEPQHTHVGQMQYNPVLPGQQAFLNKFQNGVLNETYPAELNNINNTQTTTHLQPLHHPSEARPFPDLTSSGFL
Format: cell-based
Experimental: HEPG2 and HEPA1C1C7 cells were maintained in MEM and αMEM without nucleosides supplemented with 10% heat inactivated FBS respectively. Stably integrated DRE-luciferase cell lines were generated by transducing the both cell lines with Cignal XRE luciferase reporter (Qiagen) lentiviral particles according to the manufacturer protocol. For both cell lines stably integrated reporter cell lines were selected for the presence of 2 µg/mL puromycin. Following selection of stably integrated cell line pools, clonal cell lines were isolated by limiting dilution in 96-well plates. Transcriptional assays were performed by seeding 100 μL of cells at a density of 250,000 or 100,000 cells/mL, for HEPG2 and HEPA1C1C7 DRE-Luc cells respectively, into 96-well cell culture plates in OptiMEM supplemented with 0.5% heat inactivated FBS and allowed to attach overnight. For modulator assays, the compounds were added in a semi-log dose response using a D300e Digital Dispenser (Tecan) followed normalization with vehicle (DMSO). Immediately following compound addition 10 μL of 2,3,7,8-Tetrachlorodibenzo-p-dioxin (TCDD) was added to the cells to a final concentration of 3 nM or 0.3 nM for the HEPG2 and HEPA1C1C7 DRE-Luc cells respectively. Following 24 hour incubation the medium was removed and the cells were lysed in 25 μL of Reporter Lysis Buffer (Promega). Firefly luciferase activity was measured immediately following the addition of 50 μL Luciferase Assay Reagent (Promega). The percent maximal activity for each point was determined using the following equasion: (RLUsample-RLUvehicle−TCDD)/(RLUvehicle+TCDD RLUvehicle−TCDD)*100. The relative IC50, defined as the compound concentration required to reduce the TCDD induced response between the top and bottom plateau of each individual dose response curve by half, for each compound was determined using Prism 7 (GraphPad Software).

SMILES	IC50 [nM]
Cc1ccc2nc(-c3ccc(NC(=O)c4ccnn4C)c(C)c3)ccc2c1 [Example 079, 1-methyl-N-(2-methyl-4-(6-methylquinolin-2-yl)phenyl)-1H-pyrazole-5-carboxamide]	500 to 1000
Cc1cc(-c2ccc3cc(F)ccc3n2)ccc1NC(=O)N1CCOCC1 [Example 041, N-(4-(6-fluoroquinolin-2-yl)-2-methylphenyl)morpholine-4-carboxamide]	1000 to 10000
Cc1cc(NC(=O)c2ccnn2C)ccc1-c1ccc2cc(F)ccc2n1 [Example 050, N-(4-(6-fluoroquinolin-2-yl)-3-methylphenyl)-1-methyl-1H-pyrazole-5-carboxamide]	500 to 1000
Cc1cc(-c2ccc3cc(F)ccc3n2)ccc1NC(=O)c1nccn1C [Example 033, N-(4-(6-fluoroquinolin-2-yl)-2-methylphenyl)-1-methyl-1H-imidazole-2-carboxamide]	200 to 500
Cc1cc(-c2ccc3cncc(C)c3n2)ccc1NC(=O)c1ccnn1C [Example 059, 1-methyl-N-(2-methyl-4-(8-methyl-1,6-naphthyridin-2-yl)phenyl)-1H-pyrazole-5-carboxamide]	200 to 500
Cc1cc(-c2ccc3nncc(C)c3c2)ccc1NC(=O)c1ccnn1C [Example 062, 1-methyl-N-(2-methyl-4-(4-methylcinnolin-6-yl)phenyl)-1H-pyrazole-5-carboxamide]	1000 to 10000
Cc1cc(-c2ccc3cccc(C)c3n2)ccc1NC(=O)OC(C)(C)C [Example 017, tert-butyl (2-methyl-4-(8-methylquinolin-2-yl)phenyl)carbamate]	1000 to 10000
Cc1cc(-c2ccc3cc(F)ccc3n2)ccc1NC(=O)c1ncco1 [Example 039, N-(4-(6-fluoroquinolin-2-yl)-2-methylphenyl)oxazole-2-carboxamide]	500 to 1000
Cc1cc(-c2ccc3ccccc3n2)ccc1NC(=O)c1ccnn1C [Example 070, 1-methyl-N-(2-methyl-4-(quinolin-2-yl)phenyl)-1H-pyrazole-5-carboxamide]	500 to 1000
Cc1cc(NC(=O)c2ccnn2C)ncc1-c1ccc2cc(F)ccc2n1 [Example 043, N-(5-(6-fluoroquinolin-2-yl)-4-methylpyridin-2-yl)-1-methyl-1H-pyrazole-5-carboxamide]	1000 to 10000
Cc1cc(-c2nc3ccc(C(F)(F)F)cc3s2)ccc1NC(=O)c1ccnn1C [Example 101, 1-methyl-N-(2-methyl-4-(6-(trifluoromethyl)benzo[d]thiazol-2-yl)phenyl)-1H-pyrazole-5-carboxamide]	200 to 500
Cc1cc(-c2ccc3cc(F)cc(C(F)(F)F)c3n2)ccc1NC(=O)c1ccnn1C [Example 058, N-(4-(6-fluoro-8-(trifluoromethyl)quinolin-2-yl)-2-methylphenyl)-1-methyl-1H-pyrazole-5-carboxamide]	200 to 500
Cc1cc(-c2ccc3c(ccn3C)c2)ccc1NC(=O)c1ccnn1C [Example 083, 1-methyl-N-(2-methyl-4-(1-methyl-1H-indol-5-yl)phenyl)-1H-pyrazole-5-carboxamide]	500 to 1000
Cc1cc(-c2nc3cc(C(F)(F)F)ccc3s2)ccc1NC(=O)c1ccnn1C [Example 100, 1-methyl-N-(2-methyl-4-(5-(trifluoromethyl)benzo[d]thiazol-2-yl)phenyl)-1H-pyrazole-5-carboxamide]	200 to 500
Cc1cc(-c2ccc3cc(F)ccc3n2)ccc1NC(=O)c1ccnn1C [Example 014, N-(4-(6-fluoroquinolin-2-yl)-2-methylphenyl)-1-methyl-1H-pyrazole-5-carboxamide]	200 to 500
Cn1nccc1C(=O)Nc1ccc(-c2ccc3cc(F)ccc3n2)cc1F [Example 066, N-(2-fluoro-4-(6-fluoroquinolin-2-yl)phenyl)-1-methyl-1H-pyrazole-5-carboxamide]	500 to 1000
Cc1cc(-c2ccc3cc(C(F)(F)F)ccc3n2)ccc1NC(=O)C(F)(F)F [Example 080, 2,2,2-trifluoro-N-(2-methyl-4-(6-(trifluoromethyl)quinolin-2-yl)phenyl)acetamide]	1000 to 10000

Continued, values first:

IC50 [nM]	SMILES
1000 to 10000	Cc1cc(-c2ncc3cc(C(F)(F)F)ccc3n2)ccc1N(C)C(=O)c1ccnn1Cc1nnn[nH]1 [Example 158, 1-((1H-tetrazol-5-yl)methyl)-N-methyl-N-(2-methyl-4-(6-(trifluoromethyl)-quinazolin-2-yl)phenyl)-1H-pyrazole-5-carboxamide]
< 200	Cc1cc(-c2ncc3cc(C(F)(F)F)ccc3n2)ccc1N(C)C(=O)c1ncncc1C [Example 124, N,5-dimethyl-N-(2-methyl-4-(6-(trifluoromethyl)quinazolin-2-yl)phenyl)pyrimidine-4-carboxamide]
500 to 1000	Cc1cc(-c2ncc3cc(C(F)(F)F)ccc3n2)ccc1N(C)C(=O)OC(C)(C)C [Example 009, tert-butyl methyl(2-methyl-4-(6-(trifluoromethyl)quinazolin-2-yl)phenyl)carbamate]
< 200	Cc1cc(-c2ncc3nc(C(F)(F)F)ccc3n2)ccc1N(C)C(=O)c1ccnn1C [Example 136, N,1-dimethyl-N-(2-methyl-4-(6-(trifluoromethyl)pyrido[3,2-d]pyrimidin-2-yl)phenyl)-1H-pyrazole-5-carboxamide]
< 200	Cc1cc(-c2ncc3nc(C(F)(F)F)cc(C)c3n2)ccc1N(C)C(=O)c1cc(C(N)=O)nn1CCO [Example 200, 1-(2-hydroxyethyl)-N5-methyl-N5-(2-methyl-4-(8-methyl-6-(trifluoromethyl)pyrido[3,2-d]pyrimidin-2-yl)phenyl)-1H-pyrazole-3,5-dicarboxamide]
1000 to 10000	Cc1c(-c2ccc3cc(C(F)(F)F)ccc3n2)ccc(N(C)C(=O)c2ccnn2C)c1F [Example 006, N-(2-fluoro-3-methyl-4-(6-(trifluoromethyl)quinolin-2-yl)phenyl)-N,1-dimethyl-1H-pyrazole-5-carboxamide]
< 200	COc1cnccc1C(=O)N(C)c1ccc(-c2ncc3cc(C(F)(F)F)ccc3n2)cc1C [Example 145, 3-Methoxy-N-methyl-N-(2-methyl-4-(6-(trifluoromethyl)quinazolin-2-yl)phenyl)isonicotinamide]
< 200	Cc1cc(-c2ccc3cc(C(F)(F)F)ccc3n2)ccc1N(C)C(=O)c1ccnn1CCO [Example 209, 1-(2-hydroxyethyl)-N-methyl-N-(2-methyl-4-(6-(trifluoromethyl)quinolin-2-yl)phenyl)-1H-pyrazole-5-carboxamide]
1000 to 10000	Cc1c(-c2ncc3nc(C(F)(F)F)ccc3n2)ccc(N(C)C(=O)c2ccnn2C)c1C [Example 191, N-(2,3-dimethyl-4-(6-(trifluoromethyl)pyrido[3,2-d]pyrimidin-2-yl)phenyl)-N,1-dimethyl-1H-pyrazole-5-carboxamide]
< 200	Cc1c(-c2ncc3cc(C(F)(F)F)ccc3n2)ccc(N(C)C(=O)c2ccnn2C)c1F [Example 114, N-(2-fluoro-3-methyl-4-(6-(trifluoromethyl)quinazolin-2-yl)phenyl)-N,1-dimethyl-1H-pyrazole-5-carboxamide]
< 200	Cc1cc(-c2ncc3nc(C(F)(F)F)cc(C)c3n2)ccc1N(C)C(=O)c1cc(C(N)=O)nn1CC#N [Example 198, 1-(cyanomethyl)-N5-methyl-N5-(2-methyl-4-(8-methyl-6-(trifluoro-methyl)pyrido[3,2-d]pyrimidin-2-yl)phenyl)-1H-pyrazole-3,5-dicarboxamide]
< 200	Cc1cc(-c2ncc3cc(C(F)(F)F)ccc3n2)ccc1NC(=O)c1c(C)cnn1C [Example 215, 1,4-dimethyl-N-(2-methyl-4-(6-(trifluoromethyl)quinazolin-2-yl)phenyl)-1H-pyrazole-5-carboxamide]
